What was measured:
[1] = compound: NC(=O)CCCCC1CCSS1 [lipoamide]; experiment: thermal stability z-score vs DMSO; higher = more thermally stabilized by treatment; details: HeLa, lipoamide concentration 100 µM
Description: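 Cellular thermal proteome profiling in HeLa cells. Cells were treated with 100 µM lipoamide for 1 h, with or without 1 mM arsenate for a further 1 h, then heated to ten temperatures (37-66.3 °C), and soluble protein was quantified by TMT mass spectrometry relative to 0.1% DMSO controls. The thermal stability score (sum of log2 fold changes minus the abundance score) was transformed to a z-score; mean of n = 3 experiments.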

[2] = compound: O=[As]([O-])(O)O.[K+] [potassium arsenate]; experiment: as above; details: HeLa; arsenate concentration 1 mM
Description: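 Cellular thermal proteome profiling in HeLa cells treated with 1 mM arsenate for 1 h (DMSO pretreatment), heated to ten temperatures (37-66.3 °C). Soluble protein was quantified by TMT mass spectrometry relative to DMSO controls; the thermal stability score was transformed to a z-score; mean of n = 3 experiments.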

[3] = arsenate co-treatment: 1 mM arsenate 1 h
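Note: each temperature applied for 3 min, abundance score taken as mean log2 fold change at the two lowest temperatures, z-score obtained by mean subtraction and division by SD.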

Sequence of UniProt Q99471 (Q99471 whole entry): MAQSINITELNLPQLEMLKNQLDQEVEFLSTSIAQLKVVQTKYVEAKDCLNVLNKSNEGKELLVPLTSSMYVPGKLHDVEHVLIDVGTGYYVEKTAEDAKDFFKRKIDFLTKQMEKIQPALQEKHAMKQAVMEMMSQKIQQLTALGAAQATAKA
Sequence of UniProt P60880 (P60880 whole entry, looked up): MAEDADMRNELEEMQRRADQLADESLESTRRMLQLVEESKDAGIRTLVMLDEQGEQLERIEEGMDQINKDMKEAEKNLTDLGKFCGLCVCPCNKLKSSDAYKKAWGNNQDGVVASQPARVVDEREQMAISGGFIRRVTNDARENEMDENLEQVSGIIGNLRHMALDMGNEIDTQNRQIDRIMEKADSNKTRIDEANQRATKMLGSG
Sequence of UniProt O94985 (O94985 whole entry): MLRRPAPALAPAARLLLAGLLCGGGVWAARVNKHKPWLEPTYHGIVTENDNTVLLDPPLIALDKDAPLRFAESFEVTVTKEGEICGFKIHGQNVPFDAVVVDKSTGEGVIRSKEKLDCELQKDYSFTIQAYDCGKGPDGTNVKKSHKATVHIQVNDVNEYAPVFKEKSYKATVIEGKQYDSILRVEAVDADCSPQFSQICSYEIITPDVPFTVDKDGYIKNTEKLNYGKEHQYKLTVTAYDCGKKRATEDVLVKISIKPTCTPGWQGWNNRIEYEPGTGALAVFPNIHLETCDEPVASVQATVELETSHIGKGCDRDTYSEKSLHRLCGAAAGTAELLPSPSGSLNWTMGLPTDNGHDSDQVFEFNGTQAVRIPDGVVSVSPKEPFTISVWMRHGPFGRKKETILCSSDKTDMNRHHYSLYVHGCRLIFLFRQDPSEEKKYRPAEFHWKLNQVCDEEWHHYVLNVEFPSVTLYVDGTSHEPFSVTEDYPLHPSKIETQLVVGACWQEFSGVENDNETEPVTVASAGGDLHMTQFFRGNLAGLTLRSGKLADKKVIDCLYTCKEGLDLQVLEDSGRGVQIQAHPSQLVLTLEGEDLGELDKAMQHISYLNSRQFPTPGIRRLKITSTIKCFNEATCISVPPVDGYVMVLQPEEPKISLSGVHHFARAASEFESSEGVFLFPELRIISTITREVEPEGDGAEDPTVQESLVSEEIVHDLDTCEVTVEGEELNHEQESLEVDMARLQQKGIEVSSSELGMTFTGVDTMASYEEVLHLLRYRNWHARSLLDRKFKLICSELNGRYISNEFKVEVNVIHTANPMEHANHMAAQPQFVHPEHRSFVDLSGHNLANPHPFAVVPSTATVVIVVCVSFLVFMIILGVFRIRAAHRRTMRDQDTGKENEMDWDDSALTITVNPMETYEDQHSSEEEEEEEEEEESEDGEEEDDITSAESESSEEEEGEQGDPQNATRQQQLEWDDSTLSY
Sequence of UniProt O43795 (O43795 whole entry): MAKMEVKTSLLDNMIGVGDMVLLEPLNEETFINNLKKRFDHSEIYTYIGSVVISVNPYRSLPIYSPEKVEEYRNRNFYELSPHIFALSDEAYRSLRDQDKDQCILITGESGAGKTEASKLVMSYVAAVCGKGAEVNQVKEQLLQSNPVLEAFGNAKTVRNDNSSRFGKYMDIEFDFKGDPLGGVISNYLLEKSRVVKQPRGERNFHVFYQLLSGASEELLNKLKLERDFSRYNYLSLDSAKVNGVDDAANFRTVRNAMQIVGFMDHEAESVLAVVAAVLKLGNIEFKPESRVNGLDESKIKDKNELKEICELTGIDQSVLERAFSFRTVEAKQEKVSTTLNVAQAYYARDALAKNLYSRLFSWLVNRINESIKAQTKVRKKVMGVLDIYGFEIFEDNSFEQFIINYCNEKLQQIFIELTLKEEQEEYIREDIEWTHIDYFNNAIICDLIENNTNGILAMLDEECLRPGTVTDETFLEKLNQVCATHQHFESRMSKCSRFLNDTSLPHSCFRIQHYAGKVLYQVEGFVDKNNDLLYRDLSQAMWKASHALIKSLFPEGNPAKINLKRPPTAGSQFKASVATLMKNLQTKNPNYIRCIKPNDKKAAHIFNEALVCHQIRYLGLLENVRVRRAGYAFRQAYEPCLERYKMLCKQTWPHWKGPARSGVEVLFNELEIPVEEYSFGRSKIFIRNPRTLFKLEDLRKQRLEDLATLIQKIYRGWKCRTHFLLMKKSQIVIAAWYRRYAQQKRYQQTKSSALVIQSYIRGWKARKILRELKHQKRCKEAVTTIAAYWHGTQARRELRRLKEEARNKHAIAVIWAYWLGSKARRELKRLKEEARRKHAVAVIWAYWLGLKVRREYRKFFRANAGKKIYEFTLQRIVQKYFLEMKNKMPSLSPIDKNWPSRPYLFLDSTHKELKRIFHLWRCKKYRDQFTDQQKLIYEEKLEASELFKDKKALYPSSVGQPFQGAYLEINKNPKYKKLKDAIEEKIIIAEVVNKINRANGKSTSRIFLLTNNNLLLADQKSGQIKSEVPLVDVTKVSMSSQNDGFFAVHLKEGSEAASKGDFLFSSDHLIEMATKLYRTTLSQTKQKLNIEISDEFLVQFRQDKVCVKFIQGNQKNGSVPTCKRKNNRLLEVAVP
Sequence of UniProt Q96J01 (Q96J01 whole entry): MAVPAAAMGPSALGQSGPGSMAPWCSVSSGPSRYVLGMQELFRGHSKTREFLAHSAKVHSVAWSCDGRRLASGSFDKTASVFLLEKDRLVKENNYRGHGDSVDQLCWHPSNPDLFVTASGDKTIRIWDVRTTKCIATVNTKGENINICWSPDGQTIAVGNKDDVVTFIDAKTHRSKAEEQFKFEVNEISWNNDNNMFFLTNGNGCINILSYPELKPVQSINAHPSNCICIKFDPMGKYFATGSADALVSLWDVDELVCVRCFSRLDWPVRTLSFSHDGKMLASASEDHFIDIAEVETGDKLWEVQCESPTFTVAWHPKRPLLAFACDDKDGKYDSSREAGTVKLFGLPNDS
Sequence of UniProt Q7Z4W1 (Q7Z4W1 whole entry): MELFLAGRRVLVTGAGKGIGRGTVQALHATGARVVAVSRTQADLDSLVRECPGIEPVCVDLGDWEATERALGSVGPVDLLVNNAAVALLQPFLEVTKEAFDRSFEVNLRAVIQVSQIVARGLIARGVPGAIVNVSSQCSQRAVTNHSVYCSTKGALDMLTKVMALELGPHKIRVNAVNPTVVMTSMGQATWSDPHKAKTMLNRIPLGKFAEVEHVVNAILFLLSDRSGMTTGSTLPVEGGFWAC
Sequence of UniProt Q9Y4E5 (Q9Y4E5 whole entry): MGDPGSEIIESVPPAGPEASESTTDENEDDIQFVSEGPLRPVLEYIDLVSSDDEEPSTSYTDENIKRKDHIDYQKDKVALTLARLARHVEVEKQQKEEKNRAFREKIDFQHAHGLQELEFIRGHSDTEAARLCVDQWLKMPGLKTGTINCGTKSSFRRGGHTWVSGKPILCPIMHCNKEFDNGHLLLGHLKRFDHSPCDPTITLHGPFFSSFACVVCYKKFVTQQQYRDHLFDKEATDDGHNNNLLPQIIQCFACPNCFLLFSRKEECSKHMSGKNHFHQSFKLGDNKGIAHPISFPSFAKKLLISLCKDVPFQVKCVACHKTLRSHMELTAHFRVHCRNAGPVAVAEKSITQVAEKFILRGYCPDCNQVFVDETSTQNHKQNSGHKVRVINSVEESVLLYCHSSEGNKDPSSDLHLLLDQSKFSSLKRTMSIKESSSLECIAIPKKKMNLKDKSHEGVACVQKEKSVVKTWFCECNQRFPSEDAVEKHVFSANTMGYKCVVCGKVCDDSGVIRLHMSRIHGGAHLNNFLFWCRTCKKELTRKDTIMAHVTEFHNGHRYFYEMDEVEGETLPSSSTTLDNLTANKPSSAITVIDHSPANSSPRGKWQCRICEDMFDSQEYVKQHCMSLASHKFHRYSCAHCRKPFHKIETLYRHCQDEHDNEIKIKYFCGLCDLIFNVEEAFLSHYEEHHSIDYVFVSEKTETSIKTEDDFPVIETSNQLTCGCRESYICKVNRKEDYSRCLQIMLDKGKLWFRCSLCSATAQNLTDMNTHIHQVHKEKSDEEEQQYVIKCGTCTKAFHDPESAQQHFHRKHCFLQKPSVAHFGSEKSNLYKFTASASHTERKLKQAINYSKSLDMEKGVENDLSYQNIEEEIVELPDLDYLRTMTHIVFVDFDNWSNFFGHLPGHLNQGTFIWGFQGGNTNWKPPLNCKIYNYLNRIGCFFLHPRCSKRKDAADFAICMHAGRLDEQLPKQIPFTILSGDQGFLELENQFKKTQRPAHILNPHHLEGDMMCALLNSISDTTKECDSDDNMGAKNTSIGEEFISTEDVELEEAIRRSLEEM
Sequence of UniProt Q14764 (Q14764 whole entry): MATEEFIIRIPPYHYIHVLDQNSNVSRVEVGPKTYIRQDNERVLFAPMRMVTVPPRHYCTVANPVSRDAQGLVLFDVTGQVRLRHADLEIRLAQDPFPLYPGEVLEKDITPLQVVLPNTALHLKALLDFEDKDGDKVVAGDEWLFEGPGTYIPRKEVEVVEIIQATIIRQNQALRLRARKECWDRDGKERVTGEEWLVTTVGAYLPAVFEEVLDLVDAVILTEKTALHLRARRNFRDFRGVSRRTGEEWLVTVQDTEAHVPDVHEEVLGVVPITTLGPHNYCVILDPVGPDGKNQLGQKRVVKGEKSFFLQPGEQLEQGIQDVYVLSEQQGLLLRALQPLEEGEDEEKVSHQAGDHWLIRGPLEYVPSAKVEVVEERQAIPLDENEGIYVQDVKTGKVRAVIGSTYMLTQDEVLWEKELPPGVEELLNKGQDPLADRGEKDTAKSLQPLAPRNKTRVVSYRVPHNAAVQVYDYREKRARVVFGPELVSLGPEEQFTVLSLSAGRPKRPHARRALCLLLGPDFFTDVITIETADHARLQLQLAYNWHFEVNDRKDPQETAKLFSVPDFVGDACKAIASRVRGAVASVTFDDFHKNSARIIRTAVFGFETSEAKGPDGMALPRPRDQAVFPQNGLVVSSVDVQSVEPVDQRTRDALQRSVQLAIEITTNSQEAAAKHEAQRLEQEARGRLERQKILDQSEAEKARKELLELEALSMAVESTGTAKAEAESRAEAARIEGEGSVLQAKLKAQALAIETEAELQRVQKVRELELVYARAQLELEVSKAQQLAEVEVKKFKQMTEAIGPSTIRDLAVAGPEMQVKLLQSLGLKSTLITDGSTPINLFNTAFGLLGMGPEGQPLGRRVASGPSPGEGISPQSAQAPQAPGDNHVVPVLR

MIER1 (UniProt Q8N108) was tested, and the thermal stability z-score [1, 3] was 1.22, the thermal stability z-score ([1]; arsenate co-treatment: none) was 1.38 and the thermal stability z-score [2] was 0.0984.
Work on NEK7 (UniProt Q8TDX7) yielded a thermal stability z-score [1, 3] of -0.813, a thermal stability z-score ([1]; arsenate co-treatment: none) of -0.453 and a thermal stability z-score [2] of -0.53.
For CCT5 (UniProt P48643), the thermal stability z-score [1, 3] was -0.0313, the thermal stability z-score ([1]; arsenate co-treatment: none) was -0.053 and the thermal stability z-score [2] was 0.118.
MBD4 (UniProt O95243) was tested, and the thermal stability z-score [1, 3] was -0.0777, the thermal stability z-score ([1]; arsenate co-treatment: none) was 0.0091 and the thermal stability z-score [2] was -0.571.
RPS25 (UniProt P62851) was tested, and the thermal stability z-score [1, 3] was 0.792, the thermal stability z-score ([1]; arsenate co-treatment: none) was 0.586 and the thermal stability z-score [2] was -0.573.
With TOMM70 (UniProt O94826) the thermal stability z-score [1, 3] was -0.0648, the thermal stability z-score ([1]; arsenate co-treatment: none) was 0.115 and the thermal stability z-score [2] was -0.0776.
In the case of ARHGAP28 (UniProt Q9P2N2), the thermal stability z-score [1, 3] is reported as -0.114, the thermal stability z-score ([1]; arsenate co-treatment: none) is reported as -0.103 and the thermal stability z-score [2] is reported as -0.0848.
PDSS2 (UniProt Q86YH6) gave a thermal stability z-score [1, 3] of 0.66, a thermal stability z-score ([1]; arsenate co-treatment: none) of 0.484 and a thermal stability z-score [2] of -0.169.
With YAP1 (UniProt P46937) the thermal stability z-score [1, 3] was 0.509, the thermal stability z-score ([1]; arsenate co-treatment: none) was 0.727 and the thermal stability z-score [2] was 0.0991.
Target TARDBP (UniProt Q13148) has a thermal stability z-score [1, 3] of 0.125, a thermal stability z-score ([1]; arsenate co-treatment: none) of 0.504 and a thermal stability z-score [2] of -0.755.
For MVP (UniProt Q14764), the thermal stability z-score [1, 3] was 0.484, the thermal stability z-score ([1]; arsenate co-treatment: none) was 0.37 and the thermal stability z-score [2] was 1.08.
For UniProt F5H5P2|BCKDHA, the thermal stability z-score [1, 3] was -0.168, the thermal stability z-score ([1]; arsenate co-treatment: none) was -0.738 and the thermal stability z-score [2] was 0.969.
With ANLN (UniProt Q9NQW6) the thermal stability z-score [1, 3] was 0.066, the thermal stability z-score ([1]; arsenate co-treatment: none) was 0.0787 and the thermal stability z-score [2] was -1.45.
ASNSD1 (UniProt Q9NWL6) was tested, and the thermal stability z-score [1, 3] was -0.942, the thermal stability z-score ([1]; arsenate co-treatment: none) was -0.0608 and the thermal stability z-score [2] was -0.734.
For ZNF451 (UniProt Q9Y4E5), the thermal stability z-score [1, 3] was 0.0272, the thermal stability z-score ([1]; arsenate co-treatment: none) was 0.0565 and the thermal stability z-score [2] was 0.171.
PRRC2C (UniProt Q9Y520) gave a thermal stability z-score [1, 3] of 0.242, a thermal stability z-score ([1]; arsenate co-treatment: none) of 0.174 and a thermal stability z-score [2] of 0.0846.
SNAP25 (UniProt P60880) gave a thermal stability z-score [1, 3] of 0.86, a thermal stability z-score ([1]; arsenate co-treatment: none) of 0.512 and a thermal stability z-score [2] of -0.723.
Target RB1 (UniProt P06400) has a thermal stability z-score [1, 3] of 0.306, a thermal stability z-score ([1]; arsenate co-treatment: none) of 0.229 and a thermal stability z-score [2] of -0.64.
NDUFA8 (UniProt P51970) was tested, and the thermal stability z-score [1, 3] was -0.418, the thermal stability z-score ([1]; arsenate co-treatment: none) was -0.772 and the thermal stability z-score [2] was 0.0194.
With LMBRD1 (UniProt Q9NUN5) the thermal stability z-score [1, 3] was -0.626, the thermal stability z-score ([1]; arsenate co-treatment: none) was -0.635 and the thermal stability z-score [2] was 0.252.
With REXO2 (UniProt Q9Y3B8) the thermal stability z-score [1, 3] was 0.295, the thermal stability z-score ([1]; arsenate co-treatment: none) was 0.536 and the thermal stability z-score [2] was 0.192.
In the case of NEDD4 (UniProt P46934), the thermal stability z-score [1, 3] is reported as 0.296, the thermal stability z-score ([1]; arsenate co-treatment: none) is reported as 0.196 and the thermal stability z-score [2] is reported as -0.128.
Work on THOC3 (UniProt Q96J01) yielded a thermal stability z-score [1, 3] of 0.252, a thermal stability z-score ([1]; arsenate co-treatment: none) of 0.058 and a thermal stability z-score [2] of -0.683.
Work on HNRNPH1 (UniProt P31943) yielded a thermal stability z-score [1, 3] of -0.365, a thermal stability z-score ([1]; arsenate co-treatment: none) of 0.482 and a thermal stability z-score [2] of -0.9.
ZCRB1 (UniProt Q8TBF4) was tested, and the thermal stability z-score [1, 3] was 0.506, the thermal stability z-score ([1]; arsenate co-treatment: none) was 0.194 and the thermal stability z-score [2] was 0.155.
In the case of ELP3 (UniProt Q9H9T3), the thermal stability z-score [1, 3] is reported as 0.0482, the thermal stability z-score ([1]; arsenate co-treatment: none) is reported as 0.104 and the thermal stability z-score [2] is reported as -0.259.
GCSH (UniProt P23434) gave a thermal stability z-score [1, 3] of 0.134, a thermal stability z-score ([1]; arsenate co-treatment: none) of -0.126 and a thermal stability z-score [2] of -1.45.
For HINT1 (UniProt P49773), the thermal stability z-score [1, 3] was 1.13, the thermal stability z-score ([1]; arsenate co-treatment: none) was 0.532 and the thermal stability z-score [2] was -0.189.
Target DDX39A (UniProt O00148) has a thermal stability z-score [1, 3] of -0.214, a thermal stability z-score ([1]; arsenate co-treatment: none) of 0.12 and a thermal stability z-score [2] of 0.441.
Target TMEM192 (UniProt Q8IY95) has a thermal stability z-score [1, 3] of -0.861, a thermal stability z-score ([1]; arsenate co-treatment: none) of 0.064 and a thermal stability z-score [2] of -0.137.
With PSMC5 (UniProt P62195) the thermal stability z-score [1, 3] was -0.299, the thermal stability z-score ([1]; arsenate co-treatment: none) was -0.397 and the thermal stability z-score [2] was -0.667.
USP48 (UniProt Q86UV5) gave a thermal stability z-score [1, 3] of -0.179, a thermal stability z-score ([1]; arsenate co-treatment: none) of -0.137 and a thermal stability z-score [2] of -0.669.
In the case of RECQL5 (UniProt O94762), the thermal stability z-score [1, 3] is reported as -0.0312, the thermal stability z-score ([1]; arsenate co-treatment: none) is reported as 0.0721 and the thermal stability z-score [2] is reported as -0.222.
For TECR (UniProt Q9NZ01), the thermal stability z-score [1, 3] was -1.46, the thermal stability z-score ([1]; arsenate co-treatment: none) was -0.891 and the thermal stability z-score [2] was -0.077.
ZFC3H1 (UniProt O60293) gave a thermal stability z-score [1, 3] of 0.164, a thermal stability z-score ([1]; arsenate co-treatment: none) of -0.0359 and a thermal stability z-score [2] of -0.434.
With RAB27A (UniProt P51159) the thermal stability z-score [1, 3] was 0.277, the thermal stability z-score ([1]; arsenate co-treatment: none) was -0.14 and the thermal stability z-score [2] was 0.579.
PFDN5 (UniProt Q99471) was tested, and the thermal stability z-score [1, 3] was 1.81, the thermal stability z-score ([1]; arsenate co-treatment: none) was 1.27 and the thermal stability z-score [2] was 1.22.
NOMO1 (UniProt Q15155) was tested, and the thermal stability z-score [1, 3] was -0.893, the thermal stability z-score ([1]; arsenate co-treatment: none) was -1.83 and the thermal stability z-score [2] was 0.353.
Work on KIF3A (UniProt Q9Y496) yielded a thermal stability z-score [1, 3] of -0.146, a thermal stability z-score ([1]; arsenate co-treatment: none) of 0.418 and a thermal stability z-score [2] of 0.523.
TXNDC9 (UniProt O14530) showed a thermal stability z-score [1, 3] of -0.0714, a thermal stability z-score ([1]; arsenate co-treatment: none) of -0.127 and a thermal stability z-score [2] of 0.0909.
Work on PHACTR4 (UniProt Q8IZ21) yielded a thermal stability z-score [1, 3] of 0.747, a thermal stability z-score ([1]; arsenate co-treatment: none) of 0.22 and a thermal stability z-score [2] of -0.282.
With MYO1C (UniProt O00159) the thermal stability z-score [1, 3] was 1.12, the thermal stability z-score ([1]; arsenate co-treatment: none) was 0.329 and the thermal stability z-score [2] was -1.94.
CXORF38 (UniProt Q8TB03) was tested, and the thermal stability z-score [1, 3] was 0.486, the thermal stability z-score ([1]; arsenate co-treatment: none) was 0.307 and the thermal stability z-score [2] was -1.87.
For SLC7A11 (UniProt Q9UPY5), the thermal stability z-score [1, 3] was 0.242, the thermal stability z-score ([1]; arsenate co-treatment: none) was 0.155 and the thermal stability z-score [2] was -0.0447.
TMED3 (UniProt Q9Y3Q3) gave a thermal stability z-score [1, 3] of -0.694, a thermal stability z-score ([1]; arsenate co-treatment: none) of -0.398 and a thermal stability z-score [2] of 0.316.
In the case of CWC22 (UniProt Q9HCG8), the thermal stability z-score [1, 3] is reported as -0.0873, the thermal stability z-score ([1]; arsenate co-treatment: none) is reported as 0.0387 and the thermal stability z-score [2] is reported as -0.263.
Work on TSTA3 (UniProt Q13630) yielded a thermal stability z-score [1, 3] of -0.467, a thermal stability z-score ([1]; arsenate co-treatment: none) of -0.784 and a thermal stability z-score [2] of -0.387.
In the case of CLSTN1 (UniProt O94985), the thermal stability z-score [1, 3] is reported as -0.443, the thermal stability z-score ([1]; arsenate co-treatment: none) is reported as 0.255 and the thermal stability z-score [2] is reported as 1.06.
Target MYO1B (UniProt O43795) has a thermal stability z-score [1, 3] of 0.967, a thermal stability z-score ([1]; arsenate co-treatment: none) of 0.54 and a thermal stability z-score [2] of -2.1.
DCXR (UniProt Q7Z4W1) showed a thermal stability z-score [1, 3] of 0.346, a thermal stability z-score ([1]; arsenate co-treatment: none) of -0.203 and a thermal stability z-score [2] of 0.528.
Work on NR3C1 (UniProt P04150) yielded a thermal stability z-score [1, 3] of -0.273, a thermal stability z-score ([1]; arsenate co-treatment: none) of -0.664 and a thermal stability z-score [2] of -0.462.
In the case of CC2D1A (UniProt Q6P1N0), the thermal stability z-score [1, 3] is reported as 0.117, the thermal stability z-score ([1]; arsenate co-treatment: none) is reported as 0.0816 and the thermal stability z-score [2] is reported as -0.0172.
Work on ELOVL1 (UniProt Q9BW60) yielded a thermal stability z-score [1, 3] of -0.883, a thermal stability z-score ([1]; arsenate co-treatment: none) of -0.778 and a thermal stability z-score [2] of 0.652.
With PIP5K1A (UniProt Q99755) the thermal stability z-score [1, 3] was -0.948, the thermal stability z-score ([1]; arsenate co-treatment: none) was -0.813 and the thermal stability z-score [2] was 0.951.
Target HNRNPA3 (UniProt P51991) has a thermal stability z-score [1, 3] of 0.238, a thermal stability z-score ([1]; arsenate co-treatment: none) of 0.437 and a thermal stability z-score [2] of -0.49.

Reference: the supplement of paper PMC12463676, “Small-molecule dissolution of stress granules by redox modulation benefits ALS models” (Nature Chemical Biology, 2025)
